Patent US9434763B2, “Derivatives of pyridinone as inhibitors for tissue transglutaminase” (ZEDIRA GMBH, priority 2012, dated 2016)

Biological target: T1, TG2 in tissue sections (Mus musculus, UniProt P21981)
T1 construct: from tissue; host or cells: mouse small intestine cryosections (mucosa)
T1 sequence (P21981 1-686): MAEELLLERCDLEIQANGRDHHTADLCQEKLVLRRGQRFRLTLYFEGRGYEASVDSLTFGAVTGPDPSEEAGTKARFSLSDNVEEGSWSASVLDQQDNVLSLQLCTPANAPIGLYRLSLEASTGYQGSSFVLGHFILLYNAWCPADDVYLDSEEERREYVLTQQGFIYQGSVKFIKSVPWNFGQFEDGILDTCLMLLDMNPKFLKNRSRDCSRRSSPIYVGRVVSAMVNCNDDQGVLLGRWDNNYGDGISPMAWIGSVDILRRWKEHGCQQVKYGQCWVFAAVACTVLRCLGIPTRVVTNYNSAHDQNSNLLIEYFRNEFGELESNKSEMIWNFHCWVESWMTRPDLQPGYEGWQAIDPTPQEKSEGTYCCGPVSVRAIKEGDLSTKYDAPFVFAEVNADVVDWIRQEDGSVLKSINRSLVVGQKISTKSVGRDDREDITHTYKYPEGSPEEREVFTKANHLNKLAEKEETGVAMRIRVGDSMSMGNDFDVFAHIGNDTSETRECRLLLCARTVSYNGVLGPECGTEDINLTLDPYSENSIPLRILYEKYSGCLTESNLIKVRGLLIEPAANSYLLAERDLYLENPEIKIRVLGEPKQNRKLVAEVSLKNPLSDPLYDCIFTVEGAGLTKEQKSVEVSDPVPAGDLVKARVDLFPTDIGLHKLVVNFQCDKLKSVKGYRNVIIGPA
Assay: Ex vivo testing of inhibitors on small intestine sections of a control mouse
Conditions: pre-incubated with 0.2 mg/ml and 0.02 mg/ml inhibitor
Procedure: After a washing step (1% BSA in PBS buffer), incubation was carried out with 4 μg/ml of the TG2 substrate biotinyl-TVQQEL (Zedira, product number B001) in the presence of 5 mM CaCl2 for 2 h at room temperature. The reaction was stopped with 25 mM EDTA. After one further washing, blocking, and washing step, the primary antibody against human TG2 was added (Zedira, product number A018, 25 μg/ml) and incubated for one hour at room temperature. After four wash steps, streptavidin-FITC (2 μg/ml, streptavidin-fluorescein-isothiocyanate) and Cy3-labeled goat anti-rabbit IgG antibodies (22.5 μg/ml) were added and incubated in the dark at room temperature for 40 min. TG2 was thus visible in the fluorescence microscope as red color (Cy3), whereas biotinyl-TVQQEL incorporated by transglutaminase activity was visualized by green staining (FITC). The superposition of both images led to a yellow color when active transglutaminase was present.
[…] Then the staining protocol as described in example 10 was carried out. In the control sections with 0.0 mg/ml inhibitor yellow staining in the mucosa of the small intestinal was detected, which is due to active TG2.

| TG2 inhibition in sections at the higher concentrations of inhibitor | Compound |
| --- | --- |
| completely inhibited | CC[C@@H](C)[C@H](NC(=O)Cn1cccc(NC(=O)[C@H](CC/C=C/C(=O)OC)NC(=O)c2ccccc2)c1=O)C(=O)O [A61, (2S,3R)-2-(2-(3-((S,E)-2-benzamido-7-methoxy-7-oxohept-5-enamido)-2-oxopyridin-1(2H)-yl)acetamido)-3-methylpentanoic acid] |
| completely inhibited | CCC(CC)CNC(=O)Cn1cccc(NC(=O)[C@H](CC/C=C/C(=O)OC)NC(=O)c2cncn2C)c1=O [A63, (S,E)-Methyl 7-(1-(2-(2-ethylbutylamino)-2-oxoethyl)-2-oxo-1,2-dihydropyridin-3-ylamino)-6-(1-methyl-1H-imidazole-5-carboxamido)-7-oxohept-2-enoate] |
